Data from patent US8338465B2, “Cyclic carboxylic acid rhodanine derivatives for the treatment and prevention of tuberculosis” (priority 2006, dated 2012).
Values joined by “and” are separate entries in the source; they are usually repeats but may differ in a detail not shown here. Equal entries are not always repeated. Structures can show the parent of a compound that is named as a salt. Where two headings read alike, the source gives them in different places.

How the values were obtained:
[1] = system: Mycobacterium tuberculosis; assay: Killing of M. tuberculosis at acidic pH plus or minus nitrite (CFU counts); details: pH 5.5 or pH 4.5, plus or minus NaNO2, 4 days, FIG. 8
Text: In vitro, RNI can be generated under physiologically relevant conditions by provision of nitrite at a mildly acidified pH. During infection, Mtb resides chiefly in the phagosome of macrophages, where the pH is ˜6 in immunologically non-activated cells and can fall to ˜4.5 in those that have been activated by interferon-γ. Activated macrophages produce RNI, the most abundant of which is the accumulating autoxidation product of NO, nitrite (NO2^−). In the present assay, the intraphagosomal milieu of moderately activated macrophages was partially mimicked by culturing mycobacteria at pH 5.5 with nitrite. […] At pH 5.5, 0.5 mM nitrite generates an amount of NO no greater than that released by 3×10^5 activated macrophages in 0.5 mL in 24 hours. In the present assay pH 5.5, with or without 0.5 mM nitrite, was used.
M. tuberculosis was grown in 7H9+0.2% glycerol+0.05% Tween-80+10% ADN, pH 6.6. CFU were enumerated on 7H11 agar plates with 10% OADC enrichment. Mid-log cultures (A580 0.8-1.0) were prepared as single cell suspensions in 7H9 at pH 5.5 or pH 4.5 and diluted to 0.1 (A580). Inoculum was determined by CFU. Bacteria were incubated with compounds plus or minus 0.5 mM NaNO2 (pH 5.5) or 0.05 NaNO2 (pH 4.5) in 96 well plates in 200 μl for 4 days and plated for CFU counts after serial dilution in 7H9, pH 6.6.

bacteria and yeast = details: 10^4-10^5 CFU/mL inoculum
Experimental: (§1) Bacteria were grown to mid-logarithmic phase, diluted to A600=0.1 and inoculated in 200 μl in 96-well plates in the presence of serial dilutions of compounds or vehicle control (DMSO). MICs (minimal concentrations that prevented bacterial growth) were determined at A600 after 24 hours incubation at 37° C.

Mtb's PDH = molecular target: T1, Mtb's PDH (Mycobacterium tuberculosis, UniProt P9WIS7); assay: PDH assay with Lpd, DlaT and AceE (NADH formation at 340 nm); type: biochemical; details: preincubation at room temperature, remaining activity over time; FIG. 4
T1 sequence (P9WIS7 1-553): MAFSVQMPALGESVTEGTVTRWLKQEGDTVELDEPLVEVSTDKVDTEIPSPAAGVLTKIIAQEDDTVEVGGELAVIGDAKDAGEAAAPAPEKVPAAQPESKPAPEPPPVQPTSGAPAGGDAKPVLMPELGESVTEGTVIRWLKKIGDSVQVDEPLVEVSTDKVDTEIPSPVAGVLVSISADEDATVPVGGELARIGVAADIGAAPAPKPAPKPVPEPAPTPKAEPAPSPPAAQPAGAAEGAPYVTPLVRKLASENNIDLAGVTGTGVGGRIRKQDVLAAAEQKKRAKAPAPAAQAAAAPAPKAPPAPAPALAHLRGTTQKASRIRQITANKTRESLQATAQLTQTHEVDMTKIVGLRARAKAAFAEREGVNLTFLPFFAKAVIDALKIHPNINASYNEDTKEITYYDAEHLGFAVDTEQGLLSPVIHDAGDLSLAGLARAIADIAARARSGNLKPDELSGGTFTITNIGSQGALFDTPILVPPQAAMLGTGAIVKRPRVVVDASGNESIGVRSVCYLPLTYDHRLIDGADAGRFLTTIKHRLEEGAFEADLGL
Experimental: Reaction mixtures containing 200 nM Lpd, 350 nM DlaT, 200 nM AceE with or without 1 mM NAD+, 1 mM pyruvate, […] and […] D155931 were preincubated at room temperature and […] tested for remaining activity over time by PDH assay.

[2] = system: Mycobacterium bovis var. Bacille Calmette Guerin (BCG); type: cell-based; details: pH 5.5 or pH 4.5, plus or minus NaNO2, 4 days, CFU; FIGS. 6 and 7
Enterococcus faecalis = assay: MIC determination (A600 after 24 hours); details: for MIC: Enterococcus faecalis
Experimental: as §1

[3] = molecular target: T2, dihydrolipoamide acyltransferase (DlaT) (Mycobacterium tuberculosis, UniProt P9WIS7); assay: DlaT inhibition (Dlat IC50); DTNB peroxidase assay with Lpd, DlaT and AhpD; type: biochemical
T2 sequence (P9WIS7 1-553): T1 sequence (P9WIS7 1-553)

Staphylococcus aureus = assay: MIC determination (A600 after 24 hours); details: for MIC: Staphylococcus aureus, 10^4-10^5 CFU/mL inoculum
Experimental: as §1

[4] = system: PDH complex from porcine heart; assay: PDH assay with porcine heart PDH complex; details: increasing concentrations up the limit of its solubility; FIG. 5
[5] = Dlat IC50 category, Table 20, Prodrugs (Compounds T1 to T8)
[6] = Dlat IC50 category, Table 21, Prodrugs (Examples U1 to U10)

SMILES: O=C(O)c1cccc(N2C(=O)C(=Cc3ccc(-c4ccccc4Cl)o3)SC2=S)c1 (single isomer, unassigned) [Mycopyrin 5, 3-[5[[5-(2-chlorophenyl)-2-furanyl]methylene]-4-oxo-2-thioxo-3-thiazolidinyl]benzoic acid]
- bactericidal activity to Mycobacterium tuberculosis [1]: bactericidal
- MIC (bacteria and yeast; Escherichia coli, pH 5.5): >50 μM and >22 μg/ml
- MIC (bacteria and yeast; Escherichia coli, pH 6.6): >50 μM and >22 μg/ml
- MIC (bacteria and yeast; Pseudomonas aeruginosa, pH 5.5): >50 μM and >22 μg/ml
- MIC (bacteria and yeast; Pseudomonas aeruginosa, pH 6.6): >50 μM and >22 μg/ml
- type of inhibition of Mtb's PDH (Mtb's PDH): time-dependent, substrate-independent inhibitor
- bactericidal activity to M. bovis BCG [2]: bactericidal
- MIC (Enterococcus faecalis; pH 5.5): 5 µM and 2.2 µg/mL
- MIC (Enterococcus faecalis; pH 6.6): > 50 µM and > 22 µg/mL
- killing of Enterococcus faecalis (Enterococcus faecalis; Table 22): kills
- IC50 ([3]; Dlat IC50 category, Table 1, Compounds A1 to A294): 11 to 40 µM
- reversibility of DlaT inhibition ([3]; in presence of NADH, preincubation at room temperature, remaining activity over time, FIG. 3): irreversible inhibitor
- MIC (Staphylococcus aureus; pH 5.5, Staphylococcus aureus (brain heart infusion), pH 5.5): 5 µM and 2.2 µg/mL
- MIC (Staphylococcus aureus; pH 5.5, Staphylococcus aureus (nutrient broth), pH 5.5): 1 µM and 0.43 µg/mL
- MIC (Staphylococcus aureus; pH 6.6, Staphylococcus aureus (brain heart infusion), pH 6.6): > 50 µM and > 22 µg/mL
- MIC (Staphylococcus aureus; pH 6.6, Staphylococcus aureus (nutrient broth), pH 6.6): 2.5 µM and 1.1 µg/mL
- killing of Staphylococcus aureus (Staphylococcus aureus; Table 22): kills
- inhibition of porcine PDH [4]: does not inhibit

SMILES: O=C(OCCCCOP(=O)(O)O)c1cccc(N2C(=O)C(=Cc3ccc(-c4ccccc4Cl)o3)SC2=S)c1 [Compound T3, 3-{5-[1-[5-(2-Chloro-phenyl)-furan-2-yl]-methylidene]-4-oxo-2-thioxo-thiazolidin-3-yl}-benzoic acid 4-phosphonooxy-butyl ester]
- IC50 [3, 5]: 41 to 80 µM

SMILES: O=C(OCC(CO)CO)c1cccc(N2C(=O)C(=Cc3ccc(-c4ccccc4Cl)o3)SC2=S)c1 [Compound T4, 3-{5-[1-[5-(2-Chloro-phenyl)-furan-2-yl]-methylidene]-4-oxo-2-thioxo-thiazolidin-3-yl}-benzoic acid 3-hydroxy-2-hydroxymethyl-propyl ester]
- IC50 [3, 5]: 11 to 40 µM

SMILES: CC(CO)(CO)COC(=O)c1cccc(N2C(=O)C(=Cc3ccc(-c4ccccc4Cl)o3)SC2=S)c1 [Compound T5, 3-{5-[1-[5-(2-Chloro-phenyl)-furan-2-yl]-methylidene]-4-oxo-2-thioxo-thiazolidin-3-yl}-benzoic acid 3-hydroxy-2-hydroxymethyl-2-methyl propyl ester]
- IC50 ([3]; Table 20, Prodrugs (Compounds T1 to T8), read-out: Dlat IC50 category): 11 to 40 µM

SMILES: O=C(NC(CO)(CO)CO)c1cccc(N2C(=O)C(=Cc3ccc(-c4ccccc4Cl)o3)SC2=S)c1 [Compound T6, 3-{5-[1-[5-(2-Chloro-phenyl)-furan-2-yl]-methylidene]-4-oxo-2-thioxo-thiazolidin-3-yl}-N-(2-hydroxy-1,1-bis-hydroxymethyl-ethyl)-benzamide]
- IC50 [3, 5]: 11 to 40 µM

SMILES: O=C(NC(CO)CO)c1cccc(N2C(=O)C(=Cc3ccc(-c4ccccc4Cl)o3)SC2=S)c1 [Compound T7, 3-{5-[1-[5-(2-Chloro-phenyl)-furan-2-yl]-methylidene]-4-oxo-2-thioxo-thiazolidin-3-yl}-N-(2-hydroxy-1-hydroxymethyl-ethyl)-benzamide]
- IC50 [3, 5]: 11 to 40 µM

SMILES: O=C(OCCN(CCO)CCO)c1cccc(N2C(=O)C(=Cc3ccc(-c4ccccc4Cl)o3)SC2=S)c1 [Compound T8, 3-{5-[1-[5-(2-Chloro-phenyl)-furan-2-yl]-methylidene]-4-oxo-2-thioxo-thiazolidin-3-yl}-benzoic acid 2-[bis-(2-hydroxy-ethyl)-amino]-ethyl ester]
- IC50 [3, 5]: 41 to 80 µM

SMILES: CNS(=O)(=O)c1ccc(-c2ccc(C=C3SC(=S)N(C4CCCC(C(=O)OCCCO)C4)C3=O)o2)cc1 (stereo not drawn) [Compound U2, 3-{5-[1-[5-(4-Methylsulfamoyl-phenyl)-furan-2-yl]-methylidene]-4-oxo-2-thioxo-thiazolidin-3-yl}-cyclohexanecarboxylic acid 3-hydroxy-propyl ester]
- IC50 [3, 6]: 11 to 40 µM

SMILES: CSc1ccc(-c2ccc(C=C3SC(=S)N(C4CCCC(C(=O)OCCO)C4)C3=O)o2)cc1 (stereo not drawn) [Compound U3, 3-{5-[1-[5-(4-Methylsulfanyl-phenyl)-furan-2-yl]-methylidene]-4-oxo-2-thioxo-thiazolidin-3-yl}-cyclohexanecarboxylic acid 2-hydroxy-ethyl ester]
- IC50 [3, 6]: 41 to 80 µM

SMILES: CSc1ccc(-c2ccc(C=C3SC(=S)N(C4CCCC(C(=O)OCCCCO)C4)C3=O)o2)cc1 (stereo not drawn) [Compound U4, 3-{5-[1-[5-(4-Methylsulfanyl-phenyl)-furan-2-yl]-methylidene]-4-oxo-2-thioxo-thiazolidin-3-yl}-cyclohexanecarboxylic acid 4-hydroxy-butyl ester]
- IC50 [3, 6]: 41 to 80 µM

SMILES: CSc1ccc(-c2ccc(C=C3SC(=S)N(C4CCCC(C(=O)OCC(CO)CO)C4)C3=O)o2)cc1 (stereo not drawn) [Compound U5, 3-{5-[1-[5-(4-Methylsulfanyl-phenyl)-furan-2-yl]-methylidene]-4-oxo-2-thioxo-thiazolidin-3-yl}-cyclohexanecarboxylic acid 3-hydroxy-2-hydroxymethyl-propyl ester]
- IC50 [3, 6]: 11 to 40 µM

SMILES: CSc1ccc(-c2ccc(C=C3SC(=S)N(C4CCCC(C(=O)OCC(C)(CO)CO)C4)C3=O)o2)cc1 (stereo not drawn) [Compound U6, 3-{5-[1-[5-(4-Methylsulfanyl-phenyl)-furan-2-yl]-methylidene]-4-oxo-2-thioxo-thiazolidin-3-yl}-cyclohexanecarboxylic acid 3-hydroxy-2-hydroxymethyl-2-methyl-propyl ester]
- IC50 [3, 6]: 41 to 80 µM

SMILES: CSc1ccc(-c2ccc(C=C3SC(=S)N(C4CCCC(C(=O)NC(CO)(CO)CO)C4)C3=O)o2)cc1 (stereo not drawn) [Compound U7, 3-{5-[1-[5-(4-Methylsulfanyl-phenyl)-furan-2-yl]-methylidene]-4-oxo-2-thioxo-thiazolidin-3-yl}-cyclohexanecarboxylic acid (2-hydroxy-1,1-bis-hydroxymethyl-ethyl)-amide]
- IC50 [3, 6]: 41 to 80 µM

SMILES: CSc1ccc(-c2ccc(C=C3SC(=S)N(C4CCCC(C(=O)NC(CO)CO)C4)C3=O)o2)cc1 (stereo not drawn) [Compound U8, 3-{5-[1-[5-(4-Methylsulfanyl-phenyl)-furan-2-yl]-methylidene]-4-oxo-2-thioxo-thiazolidin-3-yl}-cyclohexanecarboxylic acid (2-hydroxy-1-hydroxymethyl-ethyl)-amide]
- IC50 [3, 6]: 41 to 80 µM

SMILES: CS(=O)(=O)c1ccc(-c2ccc(C=C3SC(=S)N(C4CCCC(C(=O)OCCCO)C4)C3=O)o2)cc1 (stereo not drawn) [Compound U9, 3-{5-[1-[5-(4-Methanesulfonyl-phenyl)-furan-2-yl]-methylidene]-4-oxo-2-thioxo-thiazolidin-3-yl}-cyclohexanecarboxylic acid 3-hydroxy-propyl ester]
- IC50 [3, 6]: 41 to 80 µM

SMILES: CSc1ccc(-c2ccc(C=C3SC(=S)N(C4CCCC(C(=O)OCCN(CCO)CCO)C4)C3=O)o2)cc1 (stereo not drawn) [Compound U10, 3-{5-[1-[5-(4-Methylsulfanyl-phenyl)-furan-2-yl]-methylidene]-4-oxo-2-thioxo-thiazolidin-3-yl}-cyclohexanecarboxylic acid 2-[bis-(2-hydroxy-ethyl)-amino]-ethyl ester hydrochloride]
- IC50 [3, 6]: < 10 µM
